Source: patent publication US20110105496A1, “Methods For The Treatment Of Myosin Heavy Chain-Mediated Conditions Using 4,7-Dihydrothieno[2,3-B]Pyridine Compounds” (priority 2005, published 2011)

Test system: alpha-MyHC
Assay: alpha-MyHC cytoblot process in neonatal rat ventricular myocytes (NRVM)
Type: cell-based
Conditions: Table 1, NRVM, 72 hours; for EC50: alpha-MyHC cytoblot, mean ± spread; for Max Plateau: maximum of dose response fit, low control = vehicle only
Method: In vitro activity of each compound is measured using the alpha-MyHC cytoblot process. Briefly, neonatal rat ventricular myocytes (NRVM) at 120,000 cells/ml in HyQ DME/High modified culture media supplemented with 10% charcoal/dextran treated FBS, 0.1% Nutridoma-SP, 1:100 MEM non-essential amino acids, 1:50 MEM amino acids solution w/o L-Gln, 1 mM sodium pyruvate and 1:100 P/S/G, are plated on gelatin coated sterile 384-well plates (Costar 3712) at 6,000 cells per well. Cells are incubated overnight at 37° C. in 5% CO2 100% humidity. Following overnight growth the media is changed to HyQ DME/High modified culture media supplemented with 0.3% Nutridoma-SP, 1:100 MEM non-essential amino acids, 1:50 MEM amino acids solution w/o L-Gln, 1 mM sodium pyruvate and 1:100 P/S/G. Cells are then dosed with serial dilutions of each compound in DMSO. Each concentration in the dose range is dosed in quadruplicate. Dosing is done in such a way so that the final DMSO concentration was 0.44%. Compound dilutions are 3-fold with the final top concentration of 10 uM. […] Following dosing, the cells are incubated for 72 hours at 37° C. in 5% CO2 100% humidity and then processed with the cytoblot method. Briefly, cell media is aspirated and cell monolayers washed with PBS and fixed with 100% methanol for 30 minutes. Fixed cells are then blocked with PBS, 0.05% Tween-20, 1% BSA, for 1 hour. Following blocking, cells are incubated with primary alpha-MyHC-specific antibody antibody (1:30 dilution of BA-G5 hybridoma conditioned media, ATCC HB276) for 1 hour. Following incubation with the primary antibody, cells are washed with PBS, 0.05% Tween-20, 1% BSA and incubated with secondary antibody (1:1000 dilution, goat-anti-mouse HRP, Southern Biotech, 1031-05) for 1 hour. Following incubation with the secondary antibody, wells are washed and incubated in SuperSignal, West Dura HRP-luminescence substrate for 30 seconds under shaking at room temperature. Luminescence is measured using a Packard Fusion plate reader. […] RLU values are converted into per cent fraction of low control and dose responses are fitted to a sigmoidal 4-parameter equation (XLFit, IDBS) where the EC50 and Max Plateau values were extracted. […] Max Plateau is the […] maximum value determined by the dose response fit.

| Compound | EC50 | Max Plateau |
| --- | --- | --- |
| CCC(=O)C1=C(CC)Nc2sc(C(=O)c3ccc4c(c3)OCO4)c(N)c2C1c1ccccc1F (centres unmarked) [Compound 71] | 57.5 nM | 223.30 ± 32.84 per cent fraction of low control |
| CCC(=O)C1=C(CC)Nc2sc(C(=O)c3ccc(Cl)c(Cl)c3)c(N)c2C1c1ccc(OC)cc1F (centres unmarked) [Compound 81] | 350 nM | 184.00 ± 15.51 per cent fraction of low control |
| CCC(=O)C1=C(CC)Nc2sc(C(=O)c3ccc(Cl)c(Cl)c3)c(N)c2C1c1ccc(O)cc1Cl (centres unmarked) [Compound 83] | 0.249 nM | 274.88 ± 44.56 per cent fraction of low control |
| CCC(=O)C1=C(CC)Nc2sc(C(=O)c3ccc(Cl)c(Cl)c3)c(N)c2C1c1cccc2ccccc12 (centres unmarked) [Compound 85] |  | 105.90 ± 6.18 per cent fraction of low control |
| CCCC(=O)C1=C(CCC)Nc2sc(C(=O)c3ccc(Cl)c(Cl)c3)c(N)c2C1c1ccccc1F (centres unmarked) [Compound 87] | 217 nM | 187.66 ± 12.24 per cent fraction of low control |
| CCC(=O)C1=C(CC)Nc2sc(C(=O)c3ccc(Cl)c(Cl)c3)c(N)c2C1c1ccc2ccccc2c1 (centres unmarked) [Compound 88] |  | 113.45 ± 11.92 per cent fraction of low control |
| CCC(=O)C1=C(CC)Nc2sc(C(=O)c3cc(C(C)(C)C)c(O)c(C(C)(C)C)c3)c(N)c2C1c1ccccc1 (centres unmarked) [Compound 90] |  | 300.00 ± 0.00 per cent fraction of low control |
| CCCC(=O)C1=C(CCC)Nc2sc(C(=O)c3ccc(Cl)cc3Cl)c(N)c2C1c1ccccc1F (centres unmarked) [Compound 91] | 198 nM | 143.39 ± 20.69 per cent fraction of low control |
| CCCC(=O)C1=C(CCC)Nc2sc(C(=O)c3cc(Cl)ccc3Cl)c(N)c2C1c1ccccc1F (centres unmarked) [Compound 92] | 50.5 nM | 189.00 ± 25.40 per cent fraction of low control |
| CCCC(=O)C1=C(CCC)Nc2sc(C(=O)c3cc(Cl)ccc3Cl)c(N)c2C1c1ccccc1 (centres unmarked) [Compound 94] | 118 nM | 153.83 ± 13.14 per cent fraction of low control |
| CCC(=O)C1=C(CC)Nc2sc(C(=O)c3ccc(Cl)c(Cl)c3)c(N)c2C1c1ccnc(F)c1 (centres unmarked) [Compound 98] | 4.99 nM | 255.02 ± 32.01 per cent fraction of low control |
| CCC(=O)C1=C(CC)Nc2sc(C(=O)c3ccc(Cl)c(Cl)c3)c(N)c2C1c1ccnc(Cl)c1 (centres unmarked) [Compound 99] | 5.23 nM | 264.37 ± 33.84 per cent fraction of low control |
| CCC(=O)C1=C(CC)Nc2sc(C(=O)c3ccc(Cl)c(Cl)c3)c(N)c2C1c1cc(F)cc(F)c1 (centres unmarked) [Compound 100] | 5.73 nM | 262.04 ± 31.65 per cent fraction of low control |
| CCC(=O)C1=C(CC)Nc2sc(C(=O)c3ccc(F)c(F)c3)c(N)c2C1c1cc(F)cc(F)c1 (centres unmarked) [Compound 101] | 3.72 nM | 230.49 ± 17.13 per cent fraction of low control |
| CCC(=O)C1=C(CC)Nc2sc(C(=O)c3ccc(F)c(F)c3)c(N)c2C1c1ccnc(F)c1 (centres unmarked) [Compound 102] | 4.18 nM | 269.88 ± 36.90 per cent fraction of low control |
| CCC(=O)C1=C(CC)Nc2sc(C(=O)c3ccc(Cl)c(Cl)c3)c(N)c2C1c1ccncc1 (centres unmarked) [Compound 104, 1-[3-amino-2-(3,4 dichloro-benzoyl)-6-ethyl-4 pyridin-4-yl-4,7 dihydro-thieno[2,3-b]pyridin-5-yl]-propan-1-one] |  | 242.77 ± 33.52 per cent fraction of low control |
| CCC(=O)C1=C(CC)Nc2sc(C(=O)c3c(Cl)cccc3Cl)c(N)c2C1c1ccccc1F (centres unmarked) [Compound 107] | 1.67 nM | 273.85 ± 29.06 per cent fraction of low control |

Further lines, with some results ahead:

| EC50 | Compound | Max Plateau |
| --- | --- | --- |
| 9.23 nM | CCC(=O)C1=C(CC)Nc2sc(C(=O)c3ccc(F)c(F)c3)c(N)c2C1c1ccccc1 (centres unmarked) [Compound 72] | 223.99 ± 24.51 per cent fraction of low control |
| 8.92 nM | CCC(=O)C1=C(CC)Nc2sc(C(=O)c3cc(C(F)(F)F)cc(C(F)(F)F)c3)c(N)c2C1c1ccccc1 (centres unmarked) [Compound 73] | 205.27 ± 38.78 per cent fraction of low control |
| 9.84 nM | CCC(=O)C1=C(CC)Nc2sc(C(=O)c3cccc(C(=O)OC)c3)c(N)c2C1c1ccccc1 (centres unmarked) [Compound 74] | 262.81 ± 32.38 per cent fraction of low control |
| 61.3 nM | CCC(=O)C1=C(CC)Nc2sc(C(=O)c3ccc(Cl)c(Cl)c3)c(N)c2C1c1cccnc1 (centres unmarked) [Compound 75] | 226.71 ± 40.80 per cent fraction of low control |
| 24.2 nM | CCC(=O)C1=C(CC)Nc2sc(C(=O)c3cc(F)cc(F)c3)c(N)c2C1c1ccccc1 (centres unmarked) [Compound 76] | 230.70 ± 23.22 per cent fraction of low control |
| 2140 nM | CCC(=O)C1=C(CC)Nc2sc(C(=O)c3cccc(C(=O)O)c3)c(N)c2C1c1ccccc1 (centres unmarked) [Compound 77] | 220.00 ± 10.00 per cent fraction of low control |
| 6.77 nM | CCC(=O)C1=C(CC)Nc2sc(C(=O)c3ccccc3)c(N)c2C1c1ccccc1F (centres unmarked) [Compound 78] | 269.77 ± 35.30 per cent fraction of low control |
| 40.8 nM | CCC(=O)C1=C(CC)Nc2sc(C(=O)c3ccc(F)cc3)c(N)c2C1c1ccccc1 (centres unmarked) [Compound 79] | 241.90 ± 15.79 per cent fraction of low control |
| 103 nM | CCC(=O)C1=C(CC)Nc2sc(C(=O)c3ccc(Cl)cc3)c(N)c2C1c1ccccc1 (centres unmarked) [Compound 80] | 226.13 ± 5.25 per cent fraction of low control |
| 14.8 nM | CCC(=O)C1=C(CC)Nc2sc(C(=O)c3ccccc3Cl)c(N)c2C1c1ccccc1 (centres unmarked) [Compound 82] | 245.96 ± 30.73 per cent fraction of low control |
| 5.4 nM | CCC(=O)C1=C(CC)Nc2sc(C(=O)c3ccc(Cl)c(Cl)c3)c(N)c2C1c1cccc(F)c1 (centres unmarked) [Compound 84] | 242.72 ± 19.34 per cent fraction of low control |
| 627 nM | CCCC(=O)C1=C(CCC)Nc2sc(C(=O)c3ccc(Cl)c(Cl)c3)c(N)c2C1c1ccccc1 (centres unmarked) [Compound 86] | 131.26 ± 2.34 per cent fraction of low control |
| 9.69 nM | CCC(=O)C1=C(CC)Nc2sc(C(=O)c3ccc(Cl)c(C)c3)c(N)c2C1c1ccccc1 (centres unmarked) [Compound 89] | 230.09 ± 19.81 per cent fraction of low control |
| 610 nM | CCCC(=O)C1=C(CCC)Nc2sc(C(=O)c3ccc(F)c(F)c3)c(N)c2C1c1ccccc1 (centres unmarked) [Compound 95] | 147.01 ± 6.43 per cent fraction of low control |
| 17.1 nM | CCC(=O)C1=C(CC)Nc2sc(C(=O)c3cccc([N+](=O)[O-])c3)c(N)c2C1c1ccccc1 (centres unmarked) [Compound 96] | 254.87 ± 72.67 per cent fraction of low control |
| 1.64 nM | CCC(=O)C1=C(CC)Nc2sc(C(=O)c3cccc([N+](=O)[O-])c3)c(N)c2C1c1ccccc1F (centres unmarked) [Compound 97] | 247.24 ± 38.88 per cent fraction of low control |
| 10.5 nM | CCC(=O)C1=C(CC)Nc2sc(C(=O)c3cccnc3)c(N)c2C1c1ccnc(F)c1 (centres unmarked) [Compound 103] | 254.65 ± 31.26 per cent fraction of low control |
| 4.38 nM | CCC(=O)C1=C(CC)Nc2sc(C(=O)c3ccccc3)c(N)c2C1c1cc(F)cc(F)c1 (centres unmarked) [Compound 105] | 273.18 ± 37.33 per cent fraction of low control |
| 8.93 nM | CCC(=O)C1=C(CC)Nc2sc(C(=O)c3ccccc3Br)c(N)c2C1c1ccccc1 (centres unmarked) [Compound 106] | 244.21 ± 29.53 per cent fraction of low control |
